From patent US20160367622A1, “AGONISTS OF GUANYLATE CYCLASE USEFUL FOR THE TREATMENT OF OPIOID INDUCED DYSFUNCTIONS” (priority 2013, published 2016)
“Also recorded” adds a separate entry of the source. Where two headings read alike, the source gives them in different places. Positions of bridges follow the written chain, without caps; N, C: chain ends. Non-standard residues stand in square brackets, D forms with d. Residues, ends and D or L forms follow the SMILES beside them.

What was measured:
[1] = system: opioid naïve animals (rats); assay: GI transit after single oral gavage dose in opioid naïve rats; format: in vivo, rat
[2] = system: female Sprague-Dawley rats; assay: methadone-induced delay in rat GI transit (charcoal meal); format: in vivo; conditions: 2.5 mg/kg methadone IP
Description: Animals: All study procedures were conducted under a study outline approved by the Institutional Animal Care and Use Committee of MB Research Labs (Spinnerstown, Pa.) or Lampire Biological Laboratories (Pipersville, Pa.). Seven to eight week old female Sprague-Dawley rats [Crl:CD(SD)], weighing between ˜180-210 grams, were obtained from Charles River Laboratories and allowed to acclimate for a week. Animals were maintained on a 12 hour light-dark cycle. For intestinal tissue collection and evaluation of GI transit, rats were fasted for at least 18 hours before the experiment, with free access to water.
The ability of opioids to delay GI transit in rats was tested by either administering 0 (vehicle) 0.25, 1 and 2.5 mg/kg of morphine or 0 (vehicle), 0.25, 2.5 and 5 mg/kg of methadone (1.5 ml/kg dose volume) by IP injection. Water served as vehicle control. Ten minutes later, a 2 mL charcoal meal consisting of 10% activated charcoal (Sigma-Aldrich, St. Louis, Mo.) and 10% gum Arabic (Sigma-Aldrich, St. Louis, Mo.) in water was administered via oral gavage. Rats were euthanized 10 min after the charcoal meal via IP injection of 150 mg/kg Beuthanasia-D solution (sodium pentobarbital, 390 mg/mL). The small intestine was removed and the total length from the pyloric sphincter to the ileocecal junction was recorded, as well as the distance traveled by the leading edge of the charcoal. Intestinal transit was determined by calculating the ratio (expressed as a percentage) of the distance between the pyloric sphincter and the leading edge of the charcoal to the distance between the pyloric sphincter and the ileocecal junction.
To evaluate the ability of SP-333 to reverse methadone induced delayed GI transit, animals were administered 2.5 mg/kg of methadone by IP injection. Ten minutes later, an oral gavage of 0 (vehicle), 0.1, 0.5, 2.5, 5 and 50 mg/kg of SP-333 (1.5 ml/kg dose volume) was administered followed immediately by a 2 mL oral gavage of the charcoal meal. Ten minutes after the charcoal meal, animals were euthanized and intestinal transit was calculated as described above.

[3] = system: female Sprague-Dawley CD rats; assay: methadone-induced constipation in rats (fecal output); format: in vivo, rat; conditions: methadone 2.5 mg/kg IP daily 9 days; SP-333 2.5, 5.0 and 10 mg/kg oral daily
[4] = system: patients with symptoms of OIC treated for non-malignant chronic pain with opioid therapy; assay: randomized 4-week placebo-controlled dose-ranging study in OIC: efficacy; format: in vivo, human; conditions: for Week 4 change from baseline in SBMs, LS Mean (SE) / Week 4 change from baseline in SBMs, Mean (SD): observed cases, mITT population
Text: (§1) A Randomized, 4-Week, Double-Blind, Placebo-Controlled, Dose-Ranging Study to Assess the Safety and Efficacy of Sp-333 for the Treatment of Opioid-Induced Constipation (OIC) in Patients with Non-Malignant Chronic Pain Receiving Opioid Therapy
To evaluate the clinical efficacy of SP-333 compared with placebo, in patients with symptoms of OIC who have been treated for non-malignant chronic pain with opioid therapy.
(§2) The primary efficacy endpoint was to determine the mean change from baseline in the number of […] (SBMs) during Week 4 of the Treatment Period. Safety was assessed by analysis of the frequency of treatment-emergent adverse events (TEAEs), adverse events leading to withdrawal, and serious adverse events (SAEs).

T84 cells = assay: cyclic GMP and cyclic AMP production in T84 cells; format: cell-based, human; conditions: 0.01, 0.1, 1, or 10 μM SP-333
Description: FIG. 3A-B is a series of graphs showing that SP-333 stimulates cyclic GMP, but not cyclic AMP production in T84 cells. Cells were treated with either control, IBMX, SP-333 ([…]), forskolin (FSK) or FSK+IBMX.
The results are depicted in FIG. 3A-B. T84 cells were treated with either control, IBMX, forskolin (FSK), or 0.01, 0.1, 1, or 10 μM SP-333, and the production of cGMP or cAMP measured (pmoles/well). CPT-cGMP and CPT-cAMP both stimulate Isc across T84 cell monolayers.

[5] = randomized 4-week study in OIC: SP-333 plasma levels; format: in vivo, human; conditions: for level at 0.5 h / level at 1 h: human, plasma, 6 mg, SP-333: 6 mg, read-out: SP-333 concentration; for level at 0.5 h: time 30; for level at 1 h: time 60
Text: (§3) To assess the safety and tolerability of SP-333. To evaluate the pharmacodynamic effects of SP-333. To evaluate the pharmacokinetic properties of SP-333.

[6] = system: patients with symptoms of OIC treated for non-malignant chronic pain with opioid therapy; assay: randomized 4-week placebo-controlled dose-ranging study in OIC: safety; format: in vivo, human; conditions: for All AEs: preliminary safety top line
Text: as §1, §3, §2

[7] = 30 and/or 60 minute time points

CC(C)C[C@@H]1NC(=O)[C@H](CCC(=O)O)NC(=O)[C@@H](NC(=O)[C@H](CCC(=O)O)NC(=O)[C@H](CC(=O)O)NC(=O)[C@H](N)CC(N)=O)CSSC[C@@H]2NC(=O)[C@H](C)NC(=O)[C@H](C(C)C)NC(=O)[C@H](CC(N)=O)NC(=O)[C@H](C(C)C)NC(=O)[C@H](CSSC[C@@H](C(=O)N[C@H](CC(C)C)C(=O)O)NC(=O)CNC(=O)[C@H]([C@@H](C)O)NC2=O)NC1=O [SP-333, dAsn^1-Asp^2-Glu^3-Cys^4-Glu^5-Leu^6-Cys^7-Val^8-Asn^9-Val^10-Ala^11-Cys^12-Thr^13-Gly^14-Cys^15-dLeu^16] (H-[dN]DECELCVNVACTGC[dL]-OH; disulfide 4-12, 7-15)
increase in small intestinal (GI) transit compared to vehicle controls ([1]; 0.05 mg/kg single oral gavage): 5.6%
increase in small intestinal (GI) transit compared to vehicle controls ([1]; 0.5 mg/kg single oral gavage): 13%
increase in small intestinal (GI) transit compared to vehicle controls ([1]; 5 mg/kg single oral gavage): 23%
increase in Isc (T84 cells monolayer; 0.01-10 μM at mucosal surface of T84 cells): concentration-dependent increase in Isc approaching saturation at 10 μM
stimulation of Isc (T84 cells monolayer; treatment from the basolateral chamber, T84 monolayer): did not stimulate Isc
GI transit in methadone-treated rats ([2]; then SP-333 0.5 mg/kg oral gavage): 40%
GI transit in methadone-treated rats ([2]; then SP-333 2.5 mg/kg oral gavage): 39%
GI transit in methadone-treated rats ([2]; then SP-333 5 mg/kg oral gavage): 44%
GI transit in methadone-treated rats ([2]; then SP-333 50 mg/kg oral gavage): 52%
average number of pellets compared to the methadone dosed group [3]: higher compared to the methadone dosed group
primary endpoint (mean change from baseline in SBMs during Week 4) ([4]; 3 mg and 6 mg doses): statistically significant improvement
Week 4 change from baseline in SBMs, Difference from Placebo ([4]; SP-333 1 mg): 0.613 SBMs/week
Week 4 change from baseline in SBMs, LS Mean (SE) ([4]; SP-333 1 mg): 2.436 (0.3800) SBMs/week
Week 4 change from baseline in SBMs, Mean (SD) ([4]; SP-333 1 mg): 2.429 (2.7363) SBMs/week
Week 4 change from baseline in SBMs, Difference from Placebo ([4]; SP-333 3 mg): 1.405 SBMs/week
Week 4 change from baseline in SBMs, LS Mean (SE) ([4]; SP-333 3 mg): 3.227 (0.3858) SBMs/week
Week 4 change from baseline in SBMs, Mean (SD) ([4]; SP-333 3 mg): 3.210 (3.8524) SBMs/week
Week 4 change from baseline in SBMs, Difference from Placebo ([4]; SP-333 6 mg): 1.528 SBMs/week
Week 4 change from baseline in SBMs, LS Mean (SE) ([4]; SP-333 6 mg): 3.351 (0.3919) SBMs/week
Week 4 change from baseline in SBMs, Mean (SD) ([4]; SP-333 6 mg): 3.379 (3.1424) SBMs/week
increase in Isc (rat jejunum tissue; 0.01-10 μM at mucosal surface of rat jejunum): concentration-dependent increase in Isc approaching saturation at 10 μM
stimulation of Isc (rat jejunum tissue; treatment from the basolateral chamber, rat jejunum tissues): did not stimulate Isc
cAMP production (T84 cells): not cAMP synthesis; also recorded: does not result in an increase of cAMP production
cGMP production (T84 cells): stimulates cGMP synthesis; also recorded: concentration dependent increase in cGMP levels
maximum plasma level value observed [5, 7]: 2.71 ng/mL
number of patients in whom SP-333 plasma levels were observed [5, 7]: 4 patients
level at 0.5 h ([5]; subject 006-004, visit week 1): 2.71 ng/mL
level at 1 h ([5]; subject 006-004, visit week 1): 1.77 ng/mL
level at 0.5 h ([5]; subject 007-013, visit week 1): 1.38 ng/mL
level at 0.5 h ([5]; subject 026-016, visit week 4): 1.88 ng/mL
level at 1 h ([5]; subject 026-016, visit week 4): 1.5 ng/mL
level at 0.5 h ([5]; subject 047-002, visit week 4): 1.21 ng/mL
Diarrhea ([6]; 1 mg (n 74)): 3 (4%) n (%)
Diarrhea Drop ([6]; 1 mg (n 74)): 0 (0%) n (%)
Drops for AE ([6]; 1 mg (n 74)): 1 (1.4%) n (%)
All AEs ([6]; 1 mg (n 74)): 19 (25.7%) n (%)
patients with TEAE leading to study treatment discontinuation ([6]; 1 mg group): 1.4%
Diarrhea ([6]; 3 mg (n 70)): 4 (5.4%) n (%)
Diarrhea Drop ([6]; 3 mg (n 70)): 0 (0%) n (%)
Drops for AE ([6]; 3 mg (n 70)): 2 (2.9%) n (%)
serious adverse events: Chest Pain ([6]; 3 mg (n 70)): 1 (1.4%) n (%)
All AEs ([6]; 3 mg (n 70)): 16 (22.9%) n (%)
patients with TEAE leading to study treatment discontinuation ([6]; 3 mg group): 2.9%
Diarrhea ([6]; 6 mg (n 72)): 7 (9.7%) n (%)
Diarrhea Drop ([6]; 6 mg (n 72)): 2 (2.9%) n (%)
Drops for AE ([6]; 6 mg (n 72)): 5 (6.9%) n (%)
serious adverse events: Death (metastatic HCC) ([6]; 6 mg (n 72)): 1 (1.4%) n (%)
All AEs ([6]; 6 mg (n 72)): 23 (31.9%) n (%)
patients with TEAE leading to study treatment discontinuation ([6]; 6 mg group): 6.9%
percentage of patients experiencing at least 1 TEAE ([6]; SP-333 1 mg (placebo 27.4%)): 25.7%
percentage of patients experiencing at least 1 TEAE ([6]; SP-333 3 mg (placebo 27.4%)): 22.9%
percentage of patients experiencing at least 1 TEAE ([6]; SP-333 6 mg (placebo 27.4%)): 31.9%
most frequently reported TEAE ([6]; in vivo): diarrhea
